Measurements taken from patent US20170360805A1, “MOTOR-ASSOCIATED NEURODEGENERATIVE DISEASE AND METHODS OF TREATMENT” (priority 2016, published 2017).

Experiments:
[1] = system: TDP43 stress granule formation of U2OS cells expressing GFP-labeled human TDP43; assay: TDP43 stress granule assay (arsenite challenge, fluorescence imaging); format: cell-based; conditions: Example 2, FIG. 4; 0.01, 0.1, 1 and 10 μM, 24 h pre-incubation, sodium arsenite 250 μM 120 min; Student's t Test vs arsenite control
NSC-34 cells = assay: Glutamate excitotoxicity model, MTT cell viability, NSC-34 cells; format: cell-based, mouse; conditions: 24 hours, 0.01-10 μM, FIG. 7A
Protocol: (§1) FIG. 7A-FIG. 7B illustrate the effects of 15d-PGJ2 at four different concentrations (0.01, 0.1, 1, and 10 μM) on glutamate induced neurotoxicity in NSC-34 cells (left-FIG. 7A) and primary rat cortical neurons (right-FIG. 7B). Cell viability was determined by the MTT assay. Data are shown as mean+SEM (n=6 or 12) as percentage of vehicle control (VC). Statistical significance is indicated by *<0.05 and **<0.01 as determined by One-Way ANOVA followed by Dunnett's Multiple Comparison Test, in comparison to glutamate lesion (L or Glu).
Viability of cultures was determined by the MTT assay using a plate-reader (570 nm). This assay allows the measurement of the mitochondrial dehydrogenase activity which reduces yellow MTT to dark blue formazan crystals. Since this reaction was catalyzed in living cells, this assay was used for the determination of cell viability. MTT solution was added to each well in a final concentration of 0.5 mg/ml. After 2 hours the MTT containing medium was aspired. Cells were lysed in 3% SDS and the formazan crystals were dissolved in isopropanol/HCl. Optical density was measured with a plate-reader at wavelength 570 nm. Cell survival rate was expressed as optical density (OD). Values were calculated as percent of control values (vehicle control).
15d-PGJ2 was tested in a glutamate excitotoxicity model, a model of ALS. […]

[2] = system: primary rat cortical neurons; assay: Glutamate excitotoxicity model, MTT cell viability, primary rat cortical neurons; format: cell-based; conditions: 24 hours, 0.01-10 μM, FIG. 7B
Protocol: as §1
(§2) Primary cortical neurons were prepared from time mated Sprague Dawley rats. Animals were sacrificed and embryos were dissected in Calcium and Magnesium free Hanks Balanced Salt Solution (CMF-HBSS) containing 15 mM HEPES and 10 mM NaHCO3, pH 7.2. Embryos were decapitated, skin and skull gently removed and cortical hemispheres were separated. […] Cells were counted in a hemacytometer and 4×10^4 cells per well were seeded on poly-D-lysine pre-coated 96-well plates. […]
Viability of cultures was determined by the MTT assay using a plate-reader (570 nm). […] Optical density was measured with a plate-reader at wavelength 570 nm. Cell survival rate was expressed as optical density (OD). Values were calculated as percent of control values (vehicle control). […]

M3 network genes = assay: Validation of M3 network activation by RNA sequencing; format: cell-based; conditions: 1 μM, primary rat cortical neurons, no glutamate lesion, FIG. 5
Protocol: Bioinformatics predictions of M3 network activation from isoflupredone was validated in naïve neuronal cells (primary rat cortical neurons).
In parallel, 5 different test items and 2 reference items at 1 concentration each were applied to primary rat cortical neurons from […] of Sprague Dawley rats. The compounds were incubated for 8 days. […] Cell viability was determined by MTT and RNA was isolated. A number of ≧3 technical replicates were used.
Test item 1: isoflupredone (1 micromolar)
as §2
Messenger RNA was extracted from the cells and sequencing libraries were prepared using the TruSeq kit and poly-A selection. The resulting libraries were sequenced at a depth of 30 million reads per sample using single-ended 75 bp reads.

Compound	aggregation of TDP43 compared to the negative control (mean number of fluorescent aggregates per cell) [1]	effect on glutamate induced neurotoxicity (cell viability, MTT) (NSC-34 cells)	effect on glutamate induced neurotoxicity (cell viability, MTT) [2]	activation of M3 network genes (pattern of activation) (M3 network genes)
CC(=O)[C@H]1CC[C@H]2[C@@H]3C[C@H](C)C4=CC(=O)CC[C@]4(C)[C@H]3[C@@H](O)C[C@]12C [medrysone]	did not show a statistically significant effect			
CCCCC/C=C\C=C1\C(=O)C=CC1C/C=C\CCCC(=O)O (centres unmarked) [15d-PGJ2, 15-Deoxy-Δ12,14-prostaglandin J2]		neuroprotective effect	neuroprotective effect	
C[C@]12C=CC(=O)C=C1CC[C@H]1[C@@H]3CC[C@](O)(C(=O)CO)[C@@]3(C)C[C@H](O)[C@@]12F [isoflupredone, (11β)-9-Fluoro-11,17,21-trihydroxypregna-1,4-diene-3,20-dione]	statistically significant decrease			largely up-regulation
